# Publication PMC4912613, “A broad analysis of resistance development in the malaria parasite” (Nature Communications, 2016)
# Marks after values point to notes of the source that are not given here.
# How the values were obtained:
# [1] = test system: P. falciparum 3D7, Dd2, Dd2Δexo; experiment: In vitro evolution of compound-resistant lines (selection); assay type: cell-based, Plasmodium falciparum; conditions: for Time Length to Obtain Mutants: in vitro selection; for # of Resistant Strains Generated: resistant cultures out of three independent cultures; for EC50 fold shifts observed: selected parasites vs selection parent
# Description: While we found an overall lack of pre-existing resistance, analysing the onset of resistance was critical, as compounds resulting in rapid resistance are not ideal for clinical development. We therefore sought to create drug-resistant parasites using a variety of different selection methods. We implemented either a high-dose method or a ramp-up/pulse method for our in vitro selections. Two of the 50 compounds—MMV028895 and MMV665824—were removed from the selection study during experimentation. […] Out of the remaining 48 compounds, resistant parasites were obtained for 23 (Supplementary Data 1). As each selection was performed in triplicate with three independent cultures, we succeeded in generating a total of 66 resistant cultures. Parasites resistant to MMV026596 were not obtained despite 100 days of selection, but the cultures acquired hypersensitivity to mefloquine with a 10-fold reduction in EC50 compared with its parental line, 3D7. For the remaining 24 compounds, acquisition of resistant parasites was unsuccessful despite numerous attempts over an extensive period of time.
# Based on the compound speed of action and lab specialty, selections were conducted using a high-pressure intermittent selection method, a step-wise selection method, or a constant selection method. For high-pressure selections, ∼1–2 × 10^9 parasites were treated at a concentration of 3–10 × EC50 until parasites could not be seen by microscopy (4–10 days). Following treatment, compound pressure was removed and cultures were allowed to recover. Once healthy parasites were seen and parasitemia reached ∼2%, compound pressure was reinstated. For step-wise selections, ∼1 × 10^8 parasites were treated at a starting concentration resulting in a reduced growth rate of 50%. Cultures were examined daily by microscopy, increasing compound concentration in increments of 5–10% as needed to maintain a 50% reduced growth rate. Selections were carried out until cultures achieved a reproducible EC50 fold shift of >3 × . Finally, constant selections were conducted in a similar manner to the high-pressure intermittent method with the exception that compound pressure was never removed. Following successful selection, cultures were cloned out using a limiting dilution method as previously described. Selections were terminated after 200 days if resistance could not be obtained.
# [2] = test system: ProRS (prolyl t-RNA synthetase L482H, parent Dd2); experiment: Cross-resistance EC50 assay, ProRS; assay type: cell-based; conditions: Plasmodium falciparum, SYBR green 72 hour assay, synchronized parasites, 384-well format
# Description: (§1) To evaluate potential overlapping activity against known antimalarial drug targets, we performed dose-response studies with each compound against our assembled set of drug-resistant lines and their corresponding parents, in an asexual blood stage proliferation assay (Table 1). Comparisons were made to the drug-sensitive strain 3D7 when a parent was unavailable (TM90C2A, W2 and Dd2). As laboratories conducted EC50 assays with different strains and protocols, all comparisons were made between assays from the same laboratory and under the same assay conditions. Compounds displaying >5-fold EC50 shifts relative to the parent or sensitive strain were flagged as having potentially non-novel targets. Average fold shifts per strain ranged from 0.82 to 2.34, with a median of 1.23 indicating there was not common resistance to any one resistant clone. No resistance patterns were observed when classifying the compounds based on chemical structure, but this was not surprising given the diversity of compounds chosen. On the other hand, given that these confirmed compounds were derived from larger unconfirmed hit lists to which some filtration criteria may have been applied (for example, elimination of obvious dihydrofolate reductase inhibitors[32]), some[10][11][12][13] pre-existing bias may exist in the set. […]
# (§2) Alternatively, a SYBR Green-based proliferation approach was used for the 72-h assay, as previously described. Briefly, a culture of either synchronized or asynchronous parasitized RBCs (0.3% parasitemia and 4% haematocrit) in screening medium (identical to supplemented medium above except no serum was added) was exposed to serial drug dilutions. Plates were incubated at 37 °C and gassed with 93% N2, 4% CO2 and 3% O2 for 72 h. Following incubation, 10 × SYBR Green I (Invitrogen; supplied in 10,000 × concentration) in lysis buffer ([…], 5 mM EDTA, 0.16% Saponin wt per vol and 1.6% Triton X vol per vol) was added to the wells and the plates were incubated overnight at room temperature before plate reading. EC50 assays were repeated three times, taking the average EC50 value from each assay set, and removing any outliers using a single iteration of Grubbs' test, eliminating values with z-scores above the critical z-value (α=0.05). The raw EC50 values for synchronized parasites assayed in a 384-well format are listed in Supplementary Data 4. The raw EC50 values for asynchronous parasites assayed in a 96 or 1536-well format are listed in Supplementary Data 5.
# (§3) EC50 values for each strain were compared with those of the corresponding parent strain to determine fold-shift changes and identify resistance. To minimize the cause variance between assays, all comparisons were conducted between strains assayed under identical conditions. A one-way ANOVA followed by a Dunnet's post-test was conducted in GraphPad Prism to identify significant changes between the parent and resistant strain.
# HepG2 = experiment: Hepatocyte toxicity; assay type: cell-based, human; conditions: for Hepatocyte Toxicity: HepG2; for EC50 fold shift compared to asexual stage: Hepatocyte Toxicity: hepatocyte toxicity / 3D7 EC50; for Liver Stage / Hepatocyte Toxicity: toxicity fold shift for the liver stage (hepatocyte toxicity vs liver stage EC50)
# Procedure, shortened: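 HepG2 cells were pretreated with compound for 2 h, then infected with fresh P. berghei sporozoites. After 48 h, exoerythrocytic-form viability was read by BrightGlo luminescence; hepatocyte toxicity was tested in parallel. EC50s came from 12-point curves run in duplicate, starting at 5 μM or 50 μM.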
# hsp90 (D88Y, parent Dd2) = experiment: Cross-resistance EC50 assay, hsp90; assay type: cell-based; conditions: Plasmodium falciparum, SYBR green 72 hour assay, synchronized parasites, 384-well format
# Description: as §1, §2, §3
SMILES,Time Length to Obtain Mutants [1],# of Resistant Strains Generated [1],EC50 fold shifts observed [1],EC50 ([2]; strain ProRS (Dd2 parent)),Hepatocyte Toxicity (HepG2),EC50 fold shift compared to asexual stage: Hepatocyte Toxicity (HepG2),Liver Stage / Hepatocyte Toxicity (HepG2),"EC50 (hsp90 (D88Y, parent Dd2); strain HSP90 (Dd2 parent))","EC50 ([2]; DD2, ProRS strain)","EC50 (hsp90 (D88Y, parent Dd2); DD2, HSP90 strain)"
COc1cc(-c2nc(-c3ccccc3)c(-c3ccccc3)[nH]2)ccc1OCCN(C)C [MMV027496],LONG (> 125 days),0/3,no shift,311 nM,13.49 µM,121.53,4.25,312 nM,–,–
CCCOCc1cc(CN2CCN(c3cccc(Cl)c3)CC2)c(O)c2ncccc12 [MMV000787],LONG (> 125 days),0/3,no shift,484 nM,2.43 µM,–,4.05,476 nM,–,–
COC(=O)c1ccc(C2C3=C(O)CC(c4ccc(F)cc4)CC3=Nc3ccccc3N2C(=O)c2ccccc2)cc1 (stereo not shown) [MMV011438],LONG (> 125 days),0/3,no shift,220 nM,> 50 µM,> 116,> 80,127 nM,–,–
FC(F)(F)c1cccc(Nc2nc3ccccc3nc2Nc2cccc(C(F)(F)F)c2)c1 [MMV665794],SHORT (0-50 days),0/3,no shift,93 nM,1.374 µM,–,3.67,140 nM,–,–
O=C(Nc1ccsc1C(=O)NC1CCCCC1)c1ccc(F)cc1 [MMV665939],MODERATE (50-125 days),3/3,4-6x,2380 nM,> 5 µM,–,–,2180 nM,–,–
Brc1ccc(Nc2nc3ccccc3nc2Nc2ccc(Br)cc2)cc1 [MMV007224],LONG (> 125 days),3/3,1.7x,298 nM,1.868 µM,8.41,3.63,247 nM,–,–
Nc1ncc(-c2cn[nH]c2)cc1-c1nc2ccc(F)cc2[nH]1 [MMV023367],LONG (> 125 days),3/3,3x,517 nM,4.228 µM,14.00,6.92,491 nM,–,–
OC(CNC1CCCCC1)Cn1c2ccc(I)cc2c2cc(I)ccc21 (stereo not shown) [MMV665882],LONG (> 125 days),3/3,2-3x,25 nM,13.25 µM,182.26,4.34,25 nM,–,–
Cc1ccc(S(=O)(=O)n2cc(-c3ccnc(N)c3)c3cc(Br)cnc32)cc1 [MMV024114],LONG (> 125 days),3/3,2x,669 nM,9.39 µM,35.43,1.58,831 nM,–,–
Cl.c1ccc2c(NCCCCCCNc3c4c(nc5ccccc35)CCCC4)c3c(nc2c1)CCCC3 [MMV019555],LONG (> 125 days),0/3,no shift,230 nM,4.811 µM,–,15.06,198 nM,–,–
COc1cc(C(=O)ON=C(N)Cc2cccc3ccccc23)cc(OC)c1OC [MMV666687],LONG (> 125 days),0/3,no shift,326 nM,31.52 µM,–,1.50,283 nM,–,–
COc1cc2cc(C(=O)Nc3ccccc3)c(N)nc2cc1OC [MMV006767],MODERATE (50-125 days),2/3*,2-4x,1730 nM,> 50 µM,–,–,3100 nM,–,–
O=C(NCC(CCCN1CCC(c2c[nH]c3ccccc23)CC1)c1ccccc1)Nc1ccc(Cl)c(Cl)c1 (stereo not shown) [MMV029272],LONG (> 125 days),3/3,6-9x,592 nM,5.366 µM,39.46,2.98,710 nM,–,–
CCOc1cc2c(cc1OCC)C(c1cc(Cl)ccc1O)NCC2 (stereo not shown) [MMV000478],LONG (> 125 days),0/3,no shift,622 nM,> 5 µM,> 5,–,1050 nM,–,–
CN(C)CCCNCc1ccc(-c2ccc(Cl)c(Cl)c2)o1 [MMV673964],LONG (> 125 days),0/3,no shift,–,19.83 µM,32.67,2.21,–,315 nM,322 nM
O=C(Nc1ccccc1O)c1ccc(Oc2cccc(C(=O)Nc3ccccc3O)c2)cc1 [MMV665888],LONG (> 125 days),0/3,no shift,495 nM,4.362 µM,3.60,6.73,843 nM,–,–
CCCCCCCN(Cc1ccc(OC(C)(C)C(=O)OCC)cc1)C(=O)Nc1ccc(Cl)cc1OCC [MMV021735],LONG (> 125 days),0/3,no shift,269 nM,> 50 µM,> 130,> 18,275 nM,–,–
